Reference: ChEMBL document CHEMBL5532732, “Structure-Based Rational Design of Constrained Peptides as TIM-3 Inhibitors” (ACS Med Chem Lett, 2024)
The source made the active and inactive calls. The calls are words filed in the database; no cut-off is given here. Peptide text beside a SMILES is read from it.

Experiments:
[1] = Stability in human plasma assessed as compound remaining incubated for 2 hrs; format: ADME, cell-free; details: read-out: Stability
[2] = Apparent permeability across apical to basolateral in human Caco-2 cells; format: ADME, cell-based
[3] = Stability in rat liver microsomes assessed as half life; format: ADME, Microsome
[4] = test system: PBMC; assay: Induction of cytokine production in human PBMC cells assessed as increase in IFN-gamma level at 1 uM in the presence of TIM3 stimulation by ELISA method; format: functional, cell-based
[5] = test system: Kasumi 1; assay: Antiproliferative activity against human Kasumi 1 cells at 1 uM; format: functional, cell-based
[6] = Stability in simulated Intestinal fluids at pH 6.5 assessed as half life; format: ADME; details: simulated intestinal fluid
[7] = Apparent permeability across basolateral to apical in human Caco-2 cells; format: ADME, cell-based
[8] = Stability in simulated gastric fluids at pH 1.6 assessed as half life; format: ADME; details: simulated gastric fluid
[9] = species on record: Homo sapiens; details: dose 250.0 nM
Description: Inhibition of recombinant human Gal-9 to biotinylated recombinant human TIM3 protein-protein interaction at 250 nM by ELISA method

[10] = Distribution coefficient, log D of the compound at pH 7.4 by shake flask method; format: physicochemical; details: octanol/water

- remaining at 2 h [1]: 95.4%
- Papp A→B [2]: 81.6 nm/s
- half-life [3]: 12.4 h
- half-life [6]: 16.4 h
- Papp B→A [7]: 125 nm/s
- half-life [8]: 8.7 h
- inhibition [9]: Active
- logD [10]: 3.52
SMILES: CC[C@H](C)[C@@H]1NC(=O)[C@H](Cc2ccc(O)cc2)NC(=O)[C@H](CS)NC(=O)[C@H](CO)NC(=O)[C@H](Cc2ccccc2)NC(=O)CNC(=O)[C@H](CO)NC(=O)[C@H](CO)NC(=O)[C@H](CO)NC(=O)[C@H](CS)NC(=O)[C@H](Cc2ccc(O)cc2)NC(=O)[C@H](CO)NC1=O (cyclo(CSSSGFSCYISY))
- Activity [4]: Active
- Activity [5]: inactive
